This note sets out measurements from publication PMC5870190, “A three-in-one-bullet for oesophageal cancer: replication fork collapse, spindle attachment failure and enhanced radiosensitivity generated by a ruthenium(II) metallo-intercalator” (Chemical Science, 2017).

The assay relates to OE21 cells. Kind of assay: Clonogenic survival assay with IR, OE21. Type of assay: cell-based, human. The note with it: Ru1 2 μM or Cis 500 nM for 24 h before IR. As to the method:
Clonogenic survival assay. OE21, OE33 or FLO1 cells were treated with 2 µM Ru1 for 24 h before irradiation with 0-8 Gy using a 137Cs γ-irradiator (IBL637, CIS Bio Int.; dose rate = 0.809 Gy min−1). 1 h after irradiation, cells were detached using Trypsin and re-seeded in 6 well plates at a density of 300 – 20,000 cells/well in triplicate in an incrementally greater number of cells with increasing IR dose to ensure adequate colony formation. Cells were incubated for 7–14 days after re-seeding to allow colony formation before being fixed with 10% methanol, 10% acetic acid and stained with 0.4% methylene blue. OE33 cells required an additional formaldehyde fixation (4% in PBS, 5 mins) step before the addition of methylene blue solution or colony detachment occurred. Colonies containing 50 cells or greater were counted using a Gelcount instrument and accompanying software (Oxford Optronix). Plating efficiencies were determined for each treatment condition and normalised to an untreated control to provide the surviving fraction (S. F.). S.F. versus radiation dose curves were plotted in GraphPad Prism and fit using a second order polynomial function (R2 values > 0.99). Dose modifying factors (DMF) at a SF=0.1 were calculated using the equation: Dose modifying factor (DMF) = IR dose to give S.F. 0.1/IR dose plus compound to give S.F.0.1. […]

In the case of [Ru(phen)2(tpphz)]^2+ [Ru1], the S.F. reads like this: (OE21, IR 0 Gy) 1.062; (OE21, IR 2 Gy) 0.801; (OE21, IR 4 Gy) 0.410; (OE21, IR 6 Gy) 0.152; (OE21, IR 8 Gy) 0.062.
